PubChem BioAssay AID256 (DTP/NCI, 2004)
Inconclusive results and toxic doses are left out.

System: CD2F1 mice, L1210 leukemia ip, survival T/C
Assay: NCI In Vivo Anticancer Drug Screen. Data for tumor model L1210 Leukemia (intraperitoneal) in CD2F1 (CDF1) mice
Conditions: endpoint: mean survival time, higher = longer survival
Method in brief: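 Compound-dosed mice with transplantable tumor versus matched vehicle controls; endpoint ratio T/C reported.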

[1] = dose: 100.0 mg/kg/injection, schedule: Q04DX003 (ip), vehicle: saline with Tween-80
[2] = dose: 200.0 mg/kg/injection, schedule: Q04DX003 (ip), vehicle: saline with Tween-80
[3] = dose: 400.0 mg/kg/injection, schedule: Q04DX003 (ip), vehicle: saline with Tween-80
[4] = dose: 100.0 mg/kg/injection, schedule: Q04DX002 (ip), vehicle: Klucel (hydroxypropylcellulose) (HPC)
[5] = dose: 200.0 mg/kg/injection, schedule: Q04DX002 (ip), vehicle: Klucel (hydroxypropylcellulose) (HPC)
[6] = dose: 400.0 mg/kg/injection, schedule: Q04DX002 (ip), vehicle: Klucel (hydroxypropylcellulose) (HPC)
[7] = dose: 100.0 mg/kg/injection, schedule: Q01DX009 (ip), vehicle: saline with Tween-80
[8] = dose: 200.0 mg/kg/injection, schedule: Q01DX009 (ip), vehicle: saline with Tween-80
[9] = dose: 400.0 mg/kg/injection, schedule: Q01DX009 (ip), vehicle: saline with Tween-80
[10] = dose: 100.0 mg/kg/injection, schedule: Q01DX001 (ip), vehicle: saline
[11] = dose: 200.0 mg/kg/injection, schedule: Q01DX001 (ip), vehicle: saline
[12] = dose: 400.0 mg/kg/injection, schedule: Q01DX001 (ip), vehicle: saline

`CCOC(=O)C([NH-])CC[NH-].[Cl][Pt+2][Cl]` (stereo unspecified) was tested, and the T/C (dose: 12.5 mg/kg/injection, schedule: Q04DX003 (ip), vehicle: saline with Tween-80) was 182 % of control, the T/C (dose: 25.0 mg/kg/injection, schedule: Q04DX003 (ip), vehicle: saline with Tween-80) was 210 % of control and the T/C (dose: 50.0 mg/kg/injection, schedule: Q04DX003 (ip), vehicle: saline with Tween-80) was 93 % of control.

`CCCCc1nc2c(O)ccc(O)c2nc1C` was tested, and the T/C (dose: 18.75 mg/kg/injection, schedule: Q01DX009 (ip), vehicle: other) was 96 % of control, the T/C (dose: 37.5 mg/kg/injection, schedule: Q01DX009 (ip), vehicle: other) was 94 % of control and the T/C (dose: 75.0 mg/kg/injection, schedule: Q01DX009 (ip), vehicle: other) was 90 % of control.

`O=CC1C2C=CCC12` (stereo unspecified) was tested, and the T/C (dose: 100.0 mg/kg/injection, schedule: Q01DX009 (ip), vehicle: saline sonified) was 102 % of control, the T/C [1] was 95 % of control and the T/C (dose: 200.0 mg/kg/injection, schedule: Q01DX009 (ip), vehicle: saline sonified) was 102 % of control. The T/C [2] was 95 % of control, the T/C (dose: 400.0 mg/kg/injection, schedule: Q01DX009 (ip), vehicle: saline sonified) was 91 % of control and the T/C [3] was 95 % of control.

With `CC(=O)NCCCN1CCOCC1` the T/C (dose: 100.0 mg/kg/injection, schedule: Q04DX003 (ip), vehicle: saline) was 96 % of control, the T/C (dose: 200.0 mg/kg/injection, schedule: Q04DX003 (ip), vehicle: saline) was 104 % of control and the T/C (dose: 400.0 mg/kg/injection, schedule: Q04DX003 (ip), vehicle: saline) was 98 % of control.

For `CCCc1nc2[nH]cnc(=S)c2[nH]1`, the T/C (dose: 12.5 mg/kg/injection, schedule: Q01DX005 (ip), vehicle: other) was 110 % of control, the T/C (dose: 25.0 mg/kg/injection, schedule: Q01DX005 (ip), vehicle: other) was 108 % of control and the T/C (dose: 50.0 mg/kg/injection, schedule: Q01DX005 (ip), vehicle: other) was 96 % of control.

With `O=S(=O)(O)SCc1ccccc1` the T/C [1] was 97 % of control, the T/C [2] was 92 % of control and the T/C [3] was 98 % of control.

`CCCCCCOc1ccc(C=Nc2ccc(CC)cc2)cc1` was tested, and the T/C [1] was 88 % of control, the T/C [2] was 91 % of control and the T/C [3] was 88 % of control.

In the case of `CCCCOP(=O)(OCCCC)C(CCC)OP(OC(CCC)P(=O)(OCCCC)OCCCC)OC(CCC)P(=O)(OCCCC)OCCCC` (stereo unspecified), the T/C (dose: 100.0 mg/kg/injection, schedule: Q04DX002 (ip), vehicle: saline) is reported as 103 % of control, the T/C (dose: 200.0 mg/kg/injection, schedule: Q04DX002 (ip), vehicle: saline) is reported as 89 % of control and the T/C (dose: 400.0 mg/kg/injection, schedule: Q04DX002 (ip), vehicle: saline) is reported as 97 % of control.

`OC(CF)CF` was tested, and the T/C (dose: 12.5 mg/kg/injection, schedule: Q01DX009 (ip), vehicle: saline) was 106 % of control and the T/C (dose: 25.0 mg/kg/injection, schedule: Q01DX009 (ip), vehicle: saline) was 118 % of control.

For `c1ccc(-c2nc(/N=N/c3nc(-c4ccccc4)c(-c4ccccc4)[nH]3)[nH]c2-c2ccccc2)cc1`, the T/C [4] was 96 % of control, the T/C [5] was 96 % of control and the T/C [6] was 100 % of control.

`Cc1ccc(Cl)c(S(=O)(=O)F)c1` was tested, and the T/C [7] was 88 % of control, the T/C [1] was 106 % of control and the T/C [8] was 103 % of control. The T/C [2] was 93 % of control, the T/C [9] was 101 % of control and the T/C [3] was 100 % of control.

For `N=C(c1ccccc1)c1ccccc1`, the T/C [7] was 100 % of control, the T/C [8] was 102 % of control and the T/C [9] was 102 % of control.

In the case of `COC1OC(C2N(c3ccccc3)CCN2c2ccccc2)=CC(OC(C)=O)C1OC(C)=O` (stereo unspecified), the T/C [1] is reported as 97 % of control, the T/C [2] is reported as 107 % of control and the T/C [3] is reported as 95 % of control.

For `CCOC(=O)c1ccc(OC(=O)Nc2ccccc2OC)cc1`, the T/C [7] was 96 % of control, the T/C [1] was 103 % of control and the T/C [8] was 92 % of control. For the same compound, the T/C [2] was 100 % of control, the T/C [9] was 94 % of control and the T/C [3] was 102 % of control.

`Cc1[nH]c(=S)[nH]c(=O)c1Cc1c(O)ccc2ccccc12` was tested, and the T/C [10] was 97 % of control, the T/C [11] was 100 % of control and the T/C [12] was 103 % of control.

In the case of `CC(C)(C)C1CC[N-]CC1.CC(C)(C)C1CC[N-]CC1.[Cl][Pt+2][Cl]`, the T/C (dose: 75.0 mg/kg/injection, schedule: Q04DX002 (ip), vehicle: saline with Tween-80) is reported as 95 % of control, the T/C (dose: 150.0 mg/kg/injection, schedule: Q04DX002 (ip), vehicle: saline with Tween-80) is reported as 98 % of control and the T/C (dose: 300.0 mg/kg/injection, schedule: Q04DX002 (ip), vehicle: saline with Tween-80) is reported as 107 % of control.

`CC1OC1c1ccc(-c2ccc(C3OC3C)cc2)cc1` (stereo unspecified) was tested, and the T/C (dose: 150.0 mg/kg/injection, schedule: Q01DX Z (ip), vehicle: saline) was 101 % of control.

`Cc1ccc(C)c(C(O)C(=O)O)c1` (stereo unspecified) was tested, and the T/C [4] was 94 % of control, the T/C [5] was 105 % of control and the T/C [6] was 98 % of control.

For `COC(=O)C1C2C=CC(CC2)C1C(=O)OC` (stereo unspecified), the T/C (dose: 100.0 mg/kg/injection, schedule: Q01DX001 (ip), vehicle: saline with Tween-80) was 103 % of control, the T/C (dose: 200.0 mg/kg/injection, schedule: Q01DX001 (ip), vehicle: saline with Tween-80) was 88 % of control and the T/C (dose: 400.0 mg/kg/injection, schedule: Q01DX001 (ip), vehicle: saline with Tween-80) was 103 % of control.

In the case of `CCOC(=O)C1OC12c1cccc3cccc(c13)C21OC1C(=O)OCC` (stereo unspecified), the T/C [1] is reported as 97 % of control, the T/C [2] is reported as 95 % of control and the T/C [3] is reported as 91 % of control.

With `CCOC(=O)NC(=O)O` the T/C [10] was 114 % of control, the T/C [11] was 103 % of control and the T/C [12] was 97 % of control.

`CN=[N+]([O-])C1(OC(C)=O)CCCC1` was tested, and the T/C (dose: 50.0 mg/kg/injection, schedule: Q01DX001 (ip), vehicle: saline) was 110 % of control and the T/C [10] was 117 % of control.
